According to patent US20240116877A1, “KIT KINASE INHIBITORS AND METHODS OF USE THEREOF” (Deciphera Pharmaceuticals, LLC, priority 2021, published 2024):
Like-named read-outs stand apart in the source and are kept apart here.

Experiments:
GIST 430 cells = assay: GIST 430 Cell Proliferation Assay (resazurin); format: cell-based; conditions: Homo sapiens; GIST430 cell proliferation
Procedure, shortened: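 Five thousand cells per well were exposed to serially diluted compound in complete growth medium for 115 h at 37 degrees Celsius, 5% CO2. Resazurin was then added for a further 5 h, fluorescence read at 540 nm excitation/600 nm emission, and IC50 values calculated.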

c-KIT kinase (uKIT) = c-KIT kinase (uKIT) (Homo sapiens (Human), UniProt P10721); assay: Biochemical Assay for uKIT (coupled pyruvate kinase/lactate dehydrogenase assay); conditions: Inhibition of biochemical activity of uKIT kinase; 1 mM ATP
Procedure, shortened: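 IC50 from percent inhibition of reaction rate over 2-3 h, relative to no-compound and known-inhibitor controls. KIT enzyme (16 nM or 4.36 nM, two sequences) ran with 1 mM ATP and 0.7 mg/mL PE4Y in Tris pH 7.5, 30° C; ATP turnover coupled to NADH loss at 340 nm.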

Ba/F3 KIT mutant cells = assay: Ba/F3 mutant KIT Cell Proliferation Assays (resazurin); format: cell-based; conditions: Mus musculus, BaF3
Procedure, shortened: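 IC50 values come from resazurin fluorescence (ex 540, em 600) after 5 h dye exposure, added as a 440 μM solution. Cells were IL-3-independent Ba/F3 expressing mutant KIT from a lentiviral vector, puromycin-selected.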

[1] = Ba/F3 KIT AYdup mutant cell proliferation, read-out: AYdup IC50
[2] = Ba/F3 KIT AYdup-D816G mutant cell proliferation, read-out: AYdup-D816G IC50
[3] = Ba/F3 KIT AYdup-V654A mutant cell proliferation, read-out: AYdup-V654A IC50
[4] = Ba/F3 KIT exon11del-V654A mutant cell proliferation, read-out: exon11del-V654A IC50
[5] = Ba/F3 KIT exon11del-Y823D mutant cell proliferation, read-out: exon11del-Y823D IC50

c-KIT kinase (uKIT), sequence (P10721 other isoform, or with tags, fused parts or gaps): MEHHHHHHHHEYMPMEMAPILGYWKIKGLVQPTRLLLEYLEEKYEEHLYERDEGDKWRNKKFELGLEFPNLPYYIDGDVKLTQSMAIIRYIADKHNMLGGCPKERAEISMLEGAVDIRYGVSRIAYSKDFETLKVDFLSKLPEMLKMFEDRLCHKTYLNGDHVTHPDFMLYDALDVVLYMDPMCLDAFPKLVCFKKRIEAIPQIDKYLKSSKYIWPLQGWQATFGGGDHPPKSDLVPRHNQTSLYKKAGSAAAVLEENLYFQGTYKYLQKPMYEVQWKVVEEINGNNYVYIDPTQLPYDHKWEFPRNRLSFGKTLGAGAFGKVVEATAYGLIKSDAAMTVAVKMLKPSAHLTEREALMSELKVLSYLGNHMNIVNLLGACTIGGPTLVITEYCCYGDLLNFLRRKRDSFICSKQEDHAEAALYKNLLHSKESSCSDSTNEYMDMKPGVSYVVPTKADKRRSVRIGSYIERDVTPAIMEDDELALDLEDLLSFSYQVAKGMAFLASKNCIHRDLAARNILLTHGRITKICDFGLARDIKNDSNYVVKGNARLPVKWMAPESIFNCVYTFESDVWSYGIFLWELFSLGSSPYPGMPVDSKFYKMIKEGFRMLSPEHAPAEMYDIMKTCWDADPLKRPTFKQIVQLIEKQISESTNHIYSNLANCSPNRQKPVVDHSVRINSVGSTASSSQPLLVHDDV

| Compound | IC50 (GIST 430 cells) [nM] | IC50 (c-KIT kinase (uKIT)) [nM] | IC50 (Ba/F3 KIT mutant cells; [1]) [nM] | IC50 (Ba/F3 KIT mutant cells; [2]) [nM] | IC50 (Ba/F3 KIT mutant cells; [3]) [nM] | IC50 (Ba/F3 KIT mutant cells; [4]) [nM] | IC50 (Ba/F3 KIT mutant cells; [5]) [nM] |
| --- | --- | --- | --- | --- | --- | --- | --- |
| COCCOc1cc(F)c2c(Nc3ccc(NC(=O)CC(=O)NC4CCCC4)cc3)ncnc2c1 [Example 92] | ≤ 10 | ≤ 10 | ≤ 10 | 10 to 100 | 10 to 100 | ≤ 10 | 10 to 100 |
| COCCOc1cc(F)c2c(Nc3ccc(NC(=O)CC(=O)NC4COC4)cc3)ncnc2c1 [Example 93] | > 1000 | 100 to 1000 |  |  | > 1000 | 100 to 1000 |  |
| COCCOc1cc(F)c2c(Nc3ccc(NC(=O)CC(=O)NC4CC4)cc3)ncnc2c1 [Example 94] | 100 to 1000 | 100 to 1000 |  |  | 100 to 1000 | 100 to 1000 |  |
| COCCOc1cc(F)c2c(Nc3ccc(NC(=O)CC(=O)NC4CCC4)cc3)ncnc2c1 [Example 95] | ≤ 10 | ≤ 10 | ≤ 10 | 10 to 100 | 10 to 100 | ≤ 10 | 10 to 100 |
| COCCOc1cc(F)c2c(Nc3ccc(NC(=O)CC(=O)NC(C)C)cc3)ncnc2c1 [Example 96] | 10 to 100 | 10 to 100 |  |  | 10 to 100 | 10 to 100 | > 1000 |
| COCCOc1cc(F)c2c(Nc3ccc(NC(=O)CC(=O)NC4CCCCC4)cc3)ncnc2c1 [Example 97] | ≤ 10 | ≤ 10 | ≤ 10 | 10 to 100 | 10 to 100 | ≤ 10 | 10 to 100 |
| COCCOc1cc(F)c2c(Nc3ccc(NC(=O)CC(=O)NCC4(C#N)CC4)cc3)ncnc2c1 [Example 98] | 100 to 1000 | 10 to 100 |  |  | 100 to 1000 | 10 to 100 | > 1000 |
| COCCOc1cc(F)c2c(Nc3ccc(NC(=O)NCCCC(C)(C)C#N)cc3)ncnc2c1 [Example 99] | ≤ 10 | ≤ 10 |  |  | 10 to 100 | ≤ 10 | 10 to 100 |
| COCCOc1cc(F)c2c(Nc3ccc(NC(=O)CC(=O)NCCC(C)C)cc3)ncnc2c1 [Example 100] | 10 to 100 | 10 to 100 |  |  | 10 to 100 | 10 to 100 | 100 to 1000 |
| COCCOc1cc(F)c2c(Nc3ccc(NC(=O)CC(=O)NC[C@H]4CCCO4)cc3)ncnc2c1 [Example 101] | 100 to 1000 | 100 to 1000 |  |  | 100 to 1000 | 10 to 100 | > 1000 |
| COCCOc1cc(F)c2c(Nc3ccc(NC(=O)CNC(=O)CC(C)(C)C)cc3)ncnc2c1 [Example 102] | ≤ 10 | 10 to 100 | ≤ 10 | 10 to 100 | 10 to 100 | 10 to 100 | 10 to 100 |
| COCCOc1cc(F)c2c(Nc3ccc(NC(=O)CNC(=O)C(C)(C)C)cc3)ncnc2c1 [Example 103] | ≤ 10 | 10 to 100 |  |  | 10 to 100 | 10 to 100 | 100 to 1000 |
| CC(C)(C#N)CCNC(=O)Nc1ccc(Nc2ncnc3cc(OCCN4CCOCC4)cc(F)c23)cc1 [Example 104] | ≤ 10 | ≤ 10 | ≤ 10 | ≤ 10 | 10 to 100 | ≤ 10 | ≤ 10 |
| COCCOc1cc(F)c2c(Nc3ccc(NC(=O)NCCC(C)(C)C#N)c(F)c3)ncnc2c1 [Example 105] | ≤ 10 | ≤ 10 |  |  | 10 to 100 | ≤ 10 | 100 to 1000 |
| COCCOc1cc(F)c2c(Nc3ccc(NC(=O)NCCCC(C)(C)F)cc3)ncnc2c1 [Example 106] | ≤ 10 | ≤ 10 |  |  | 10 to 100 | ≤ 10 | 10 to 100 |
| COCCOc1cc(F)c2c(Nc3ccc(NC(=O)CC(=O)NCCC(C)(C)OC)cc3)ncnc2c1 [Example 107] | 100 to 1000 | 10 to 100 |  |  | 100 to 1000 | 10 to 100 | > 1000 |
| COCCOc1cc(F)c2c(Nc3ccc(NC(=O)CC(=O)NCC4(C)CCOCC4)cc3)ncnc2c1 [Example 109] | 10 to 100 | 10 to 100 |  |  | 100 to 1000 | 10 to 100 | > 1000 |
| COCCOc1cc(F)c2c(Nc3ccc(NC(=O)CC(=O)NCC4(C)CCCO4)cc3)ncnc2c1 (centres unmarked) [Example 110] | 10 to 100 | 10 to 100 |  |  | 100 to 1000 | 10 to 100 | > 1000 |
| COCCOc1cc(F)c2c(Nc3ccc(NC(=O)CC(=O)NCC4(C)CCC4)cc3)ncnc2c1 [Example 111] | ≤ 10 | ≤ 10 | ≤ 10 | 10 to 100 | 10 to 100 | ≤ 10 | 10 to 100 |
| COCCOc1cc(F)c2c(Nc3ccc(NC(=O)CC(=O)NC4CC(C)(C)C4)cc3)ncnc2c1 [Example 112] | ≤ 10 | 10 to 100 | ≤ 10 | 10 to 100 | 10 to 100 | ≤ 10 | 10 to 100 |
| COCCOc1cc(F)c2c(Nc3ccc(NC(=O)CC(=O)NC4CC(F)(F)C4)cc3)ncnc2c1 [Example 113] | 10 to 100 | 10 to 100 |  |  | 10 to 100 | 10 to 100 | 100 to 1000 |
| COCCOc1cc(F)c2c(Nc3ccc(NC(=O)CC(=O)NC4CC5(COC5)C4)cc3)ncnc2c1 [Example 114] | 100 to 1000 | 100 to 1000 |  |  | 100 to 1000 | 100 to 1000 | > 1000 |
| COCCOc1cc(F)c2c(Nc3ccc(NC(=O)CC(=O)NCC4CC(F)(F)C4)cc3)ncnc2c1 [Example 115] | 10 to 100 | 10 to 100 |  |  | 10 to 100 | 10 to 100 | 100 to 1000 |
| COCCOc1cc(F)c2c(Nc3ccc(NC(=O)CC(=O)N[C@H]4C[C@@H](OC)C4)cc3)ncnc2c1 [Example 116] | 100 to 1000 | 100 to 1000 |  |  | 100 to 1000 | 10 to 100 |  |
| COCCOc1cc(F)c2c(Nc3ccc(NC(=O)CC(=O)N[C@H]4C[C@H](OC)C4)cc3)ncnc2c1 [Example 117] | 10 to 100 | 100 to 1000 |  |  | 10 to 100 | 10 to 100 | > 1000 |
| COCCOc1cc(F)c2c(Nc3ccc(NC(=O)CC(=O)NCC4CC5(CCC5)C4)cc3)ncnc2c1 [Example 118] | 10 to 100 | ≤ 10 |  |  | 10 to 100 | ≤ 10 | 10 to 100 |
| COCCOc1cc(F)c2c(Nc3ccc(NC(=O)CC(=O)NCCC(C)(C)F)cc3)ncnc2c1 [Example 119] | 10 to 100 | 10 to 100 |  |  | 10 to 100 | 10 to 100 | 100 to 1000 |
| COCCCOc1cc(F)c2c(Nc3ccc(NC(=O)NCCC(C)(C)F)cc3)ncnc2c1 [Example 120] | 10 to 100 | ≤ 10 |  |  | 10 to 100 | ≤ 10 | 100 to 1000 |
| COCCOc1cc(F)c2c(Nc3ccc(NC(=O)CC(=O)NC[C@@H]4CCCO4)cc3)ncnc2c1 [Example 121] | 100 to 1000 | 100 to 1000 |  |  | 100 to 1000 | 10 to 100 | > 1000 |
| COCCOc1cc(F)c2c(Nc3ccc(NC(=O)N4CCC(C(C)(C)C)C4)cc3)ncnc2c1 (centres unmarked) [Example 122] | 100 to 1000 | 10 to 100 |  |  | 100 to 1000 | 10 to 100 | > 1000 |
